Reference: patent US20120136005A1, “E[…] THE TREATMENT OF ANXIETY” (MERZ PHARMA GmbH & CO. KGaA, priority 2009, published 2012)

Legend:
[1] = system: 5-HT2c (initially designated 5-HT1c); conditions: Schipper et al. 1990; cited from earlier work
[2] = molecular target: T1, human serotonin 5-HT1a receptor (Homo sapiens, UniProt P08908); experiment: GTPγS assay, recombinant CHO-K1 membranes; type: biochemical; conditions: human recombinant cell lines; FIG. 1
T1 construct: expressed in transfected cells; host or cells: CHO-K1 (membranes)
T1 sequence (P08908 1-422): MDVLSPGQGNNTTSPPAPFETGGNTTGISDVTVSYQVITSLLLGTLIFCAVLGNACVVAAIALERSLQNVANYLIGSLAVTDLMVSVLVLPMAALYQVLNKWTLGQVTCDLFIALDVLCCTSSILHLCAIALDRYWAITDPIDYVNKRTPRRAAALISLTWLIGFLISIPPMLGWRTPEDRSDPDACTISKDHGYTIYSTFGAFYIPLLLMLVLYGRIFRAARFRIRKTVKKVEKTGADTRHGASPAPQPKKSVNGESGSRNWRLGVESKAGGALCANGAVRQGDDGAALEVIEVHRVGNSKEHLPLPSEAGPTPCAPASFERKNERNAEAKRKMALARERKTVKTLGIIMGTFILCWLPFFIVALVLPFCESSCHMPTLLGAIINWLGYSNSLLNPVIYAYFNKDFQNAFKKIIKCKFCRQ
Description: (§1) Eltoprazine was tested for activity on the human serotonin 5-HT1a and 5-HT1b receptors using a GTPγS assay. Recombinant membranes obtained from CHO-K1 cells expressing either the 5-HT1a or 5-HT1b receptors were mixed with GDP (volume:volume) and incubated for at least 15 min on ice. In parallel, GTPγ[35S] was mixed with the beads (volume:volume) just before starting the reaction. The following reagents were successively added in the wells of an Optiplate (Perkin Elmer): 50 μl of test compound, 20 μl of the membranes:GDP mix, 10 μl of assay buffer (for agonist testing) and 20 μl of the GTPγ[35S]:beads mix. The plates were covered with a top seal, shaken on an orbital shaker for 2 min, and then incubated for 1 h at room temperature. Then the plates were centrifuged for 10 min at 2000 rpm, incubated at room temperature 1 h and counted for 1 min/well with a PerkinElmer TopCount reader.

[3] = molecular target: T2, human serotonin 5-HT1b receptor (Homo sapiens, UniProt P28222); experiment: GTPγS assay, recombinant CHO-K1 membranes; type: biochemical; conditions: human recombinant cell lines; FIG. 1
T2 construct: expressed in transfected cells; host or cells: CHO-K1 (membranes)
T2 sequence (P28222 whole entry): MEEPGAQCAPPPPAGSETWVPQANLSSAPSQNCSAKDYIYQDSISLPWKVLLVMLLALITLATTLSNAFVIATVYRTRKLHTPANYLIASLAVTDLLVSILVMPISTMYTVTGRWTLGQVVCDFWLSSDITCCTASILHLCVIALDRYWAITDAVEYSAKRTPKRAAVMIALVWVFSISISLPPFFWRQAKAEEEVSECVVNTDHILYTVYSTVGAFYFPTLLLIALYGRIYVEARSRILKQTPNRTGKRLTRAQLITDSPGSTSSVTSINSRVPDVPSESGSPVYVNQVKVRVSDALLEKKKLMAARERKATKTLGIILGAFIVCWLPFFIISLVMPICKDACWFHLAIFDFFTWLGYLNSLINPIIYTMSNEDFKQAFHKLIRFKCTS
Description: as §1

[4] = system: unilaterally 6-OHDA-lesioned rats; experiment: L-DOPA induced dyskinesia (AIM scores) in 6-OHDA-lesioned rat model of Parkinson's disease; type: in vivo, Sprague Dawley rats; conditions: eltoprazine hydrochloride 0.08, 0.3, 1.25 and 5 mg/kg s.c.; after 21 days of L-DOPA; dose-dependent; FIG. 2
Description: Male Sprague Dawley rats (Elevage Janvier, Le Genest Saint Isle, France) weighing between 220 and 250 g at the beginning of the study are used in these experiments. They are housed under a 12 h light/dark cycle with free access to standard pelleted food and tap water. Animal treatment and experimental procedures are approved by local ethical committees (Regierungspräsidium Darmstadt; Germany).
Dopamine-denervating lesions are performed on rats anaesthetized with a 5:1 mixture of ketamine and xylazine (1 ml/kg, i.p.). […] The animals' turning behaviour is recorded in an automated rotometer (TSE Rotameter System, TSE-Systems GmbH, Bad Homburg, Germany) over a 90 min period after the intraperitoneal (i.p.) injection of 2.5 mg/kg dexamphetamine sulphate dissolved in saline. […]
In order to evaluate the severity of LID, AIMs are recorded every second day as described by Cenci et al. (1998). […] Each rat is scored on a severity scale from 0 to 4 based on its frequency and persistence (1=occasional; 2=frequent; 3=continuous but interrupted by sensory distraction; 4=continuous, severe and not interrupted by sensory distraction). […]

[5] = Rodgers et al., 1992; Rocha et al., 1994; cited from earlier work

## c1cc2c(c(N3CCNCC3)c1)OCCO2 [eltoprazine, 1-(2,3-dihydro-1,4-benzodioxin-5-yl)piperazine]
[1]
  effect on 5-HT2c: antagonistic
[2]
  functional activity at 5-HT1a receptor: partial agonistic action
[3]
  functional activity at 5-HT1b receptor: partial agonistic action
[4]
  effect on AIM scores: significantly reverses
[5]
  effect in the elevated plus maze, previous data: anxiogenic-like effects
